Active and inactive are the calls of the source. The calls are words filed in the database; no cut-off is given here.
Assays:
Staphylococcus aureus = assay: Antimicrobial activity against Staphylococcus aureus at 100 ug/disk; type: functional, organism-based
Bacillus subtilis = assay: Antimicrobial activity against Bacillus subtilis at 100 ug/disk; type: functional, organism-based

Row | SMILES | Activity (Staphylococcus aureus) | Activity (Bacillus subtilis)
1 | COC1=C(Br)[C@H](O)[C@@]2(C=C1Br)CC(C(=O)NCCCOc1ccc(CCN)cc1Br)=NO2 | Active | Active
2 | COc1c(Br)cc(C/C(=N\O)C(=O)NCCCOc2ccc(CCN)cc2Br)cc1Br | Active | Active

Source: ChEMBL document CHEMBL1150194, “Two new brominated tyrosine derivatives from the sponge Druinella (= Psammaplysilla) purpurea” (J Nat Prod, 1991)
